# Strand notation (5' to 3'): a small letter for the sugar, then the base; units joined by * are phosphorothioate-linked, units joined directly phosphodiester-linked; [ ] holds rarer units or linkages, { } end groups; capitals alone tell only the bases. e = 2'-O-(2-methoxyethyl) (MOE); [5mC] = 5-methylcytosine; d = 2'-deoxy (DNA)
# Experiments:
# [1] = Tolerability in CD1 mice: liver function (Example 41); conditions: 50 mg/kg s.c. twice per week for 6 weeks, plasma
# [2] = Tolerability in Sprague-Dawley rats: liver function (Example 35); conditions: plasma, 50 mg/kg s.c. twice per week for 6 weeks
# [3] = Body and organ weights of cynomolgus monkeys (Example 45); assay type: in vivo; conditions: for Organ weights, Kidney / Organ weights, Liver / Organ weights, Spleen: after the animals were euthanized;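 as to Organ weights, Kidney: absolute organ weight in grams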;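 as to Organ weights, Liver: absolute organ weight in grams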;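 as to Organ weights, Spleen: absolute organ weight in grams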
# Procedure: Groups, each consisting of two male and three female monkeys, were injected subcutaneously with ISIS 416838, ISIS 416850, ISIS 416858, ISIS 416864, or ISIS 417002 in escalating doses. Antisense oligonucleotide was administered to the monkeys at 5 mg/kg three times per a week for week 1; 5 mg/kg twice per week for weeks 2 and 3; 10 mg/kg three times per week for week 4; 10 mg/kg twice per week for weeks 5 and 6; 25 mg/kg three times per week for week 7; and 25 mg/kg twice per week for weeks 8, 9, 10, 11, and 12. One control group, consisting of two male and three female monkeys, was injected subcutaneously with PBS according to the same dosing regimen. An additional experimental group, consisting of two male and three female monkeys, was injected subcutaneously with ISIS 416850 in a chronic, lower dose regimen. Antisense oligonucleotide was administered to the monkeys at 5 mg/kg three times per week for week 1; 5 mg/kg twice per week for week 2 and 3; 10 mg/kg three times per week for week 4; and 10 mg/kg twice per week for weeks 5 to 12. Body weights were measured weekly. Blood samples were collected 14 days and 5 days before the start of treatment and subsequently once per week for Factor 11 protein activity analysis in plasma, fibrinogen measurement, PT and aPTT measurements, bleeding times, and measurement of various hematologic factors. On day 85, the monkeys were euthanized by exsanguination while under deep anesthesia, and organs harvested for further analysis.
# Body weights were taken once weekly throughout the dosing regimen. […] Organ weights were taken after the animals were euthanized and livers, kidneys and spleens were harvested and weighed. […] The ISIS oligonucleotide, ISIS 416850, given with the chronic dose regimen is distinguished from the other oligonucleotides with an asterisk (*).
# [4] = Tolerability in CD1 mice: liver function, ALT, AST, bilirubin, albumin (Example 33); conditions: plasma, 50 mg/kg s.c. twice a week
# Procedure: (§1) A control group of five mice was injected subcutaneously with PBS for 2 weeks. All experimental groups (i.e. ASO treated mice at 2, 4, 6 weeks) were compared to the control group (i.e. PBS, 2 weeks).
# To evaluate the effect of ISIS oligonucleotides on hepatic function, plasma concentrations of transaminases were measured using an automated clinical chemistry analyzer (Hitachi Olympus AU400e, Melville, N.Y.). […] Plasma levels of bilirubin and albumin were also measured using the same clinical chemistry analyzer and expressed in mg/dL.
# [5] = Tolerability in CD1 mice: kidney function, BUN, creatinine (Example 33); conditions: plasma, 50 mg/kg s.c. twice a week
# Procedure: as §1
# To evaluate the effect of ISIS oligonucleotides on kidney function, plasma concentrations of blood urea nitrogen (BUN) and creatinine were measured using an automated clinical chemistry analyzer (Hitachi Olympus AU400e, Melville, N.Y.).
# [6] = Tolerability in CD1 mice: kidney function (Example 43); assay type: in vivo; conditions: 50 mg/kg s.c. twice per week for 6 weeks, plasma
# [7] = Tolerability in CD1 mice: body weight and organ weight (Example 43); assay type: in vivo; conditions: 50 mg/kg s.c. twice per week for 6 weeks, at the end of the study
# From the text: The body weights of the mice taken at the end of the study are presented in Table 104 and are expressed in grams.
# [8] = day 15, escalating dose regimen
# [9] = day 22, escalating dose regimen
# [10] = day 29, escalating dose regimen
# [11] = day 36, escalating dose regimen
# [12] = day 43, escalating dose regimen
# [13] = day 50, escalating dose regimen
# [14] = day 57, escalating dose regimen
# [15] = day 64, escalating dose regimen
# [16] = day 71, escalating dose regimen
# [17] = day 78, escalating dose regimen
substance,measurement,setting,value
"ISIS 416850: MOE gapmer, nucleobases 1275 to 1318 of SEQ ID NO: 1 (Table 8) (antisense TGCACAGTTTCTGGCAGGCC; MOE gapmer, wing and gap sizes not given here)",ALT,[1],90 IU/L
same,AST,[1],115 IU/L
same,Albumin,[1],3.2
same,Bilirubin,[1],0.20 mg/dL
same,ALT,[2],80 IU/L
same,AST,[2],5 IU/L
same,Albumin,[2],4
same,Bilirubin,[2],1 mg/dL
same,body weights,"[3]; day 1, chronic dose regimen (*)",2665 g
same,body weights,"[3]; day 1, escalating dose regimen",2572 g
same,body weights,"[3]; day 8, chronic dose regimen (*)",2579 g
same,body weights,"[3]; day 8, escalating dose regimen",2430 g
same,body weights,"[3]; day 15, chronic dose regimen (*)",2607 g
same,body weights,[3]; [8],2474 g
same,body weights,"[3]; day 22, chronic dose regimen (*)",2661 g
same,body weights,[3]; [9],2514 g
same,body weights,"[3]; day 29, chronic dose regimen (*)",2667 g
same,body weights,[3]; [10],2515 g
same,body weights,"[3]; day 36, chronic dose regimen (*)",2656 g
same,body weights,[3]; [11],2545 g
same,body weights,"[3]; day 43, chronic dose regimen (*)",2670 g
same,body weights,[3]; [12],2544 g
same,body weights,"[3]; day 50, chronic dose regimen (*)",2679 g
same,body weights,[3]; [13],2613 g
same,body weights,[3]; [14],2629 g
same,body weights,[3]; [15],2642 g
same,body weights,[3]; [16],2769 g
same,body weights,[3]; [17],2660 g
same,ALT,[4]; 2 weeks,67 IU/L
same,AST,[4]; 2 weeks,72 IU/L
same,Albumin,[4]; 2 weeks,3.6
same,Bilirubin,[4]; 2 weeks,0.46 mg/dL
same,ALT,[4]; 4 weeks,58 IU/L
same,AST,[4]; 4 weeks,88 IU/L
same,Albumin,[4]; 4 weeks,3.5
same,Bilirubin,[4]; 4 weeks,0.23 mg/dL
same,ALT,[4]; 6 weeks,102 IU/L
same,AST,[4]; 6 weeks,97 IU/L
same,Albumin,[4]; 6 weeks,3.1
same,Bilirubin,[4]; 6 weeks,0.22 mg/dL
same,BUN,[5]; 2 weeks,25 mg/dL
same,Creatinine,[5]; 2 weeks,0.13 mg/dL
same,BUN,[5]; 4 weeks,30 mg/dL
same,Creatinine,[5]; 4 weeks,0.22 mg/dL
same,BUN,[5]; 6 weeks,23 mg/dL
same,Creatinine,[5]; 6 weeks,0.19 mg/dL
"ISIS 416858: MOE gapmer, nucleobases 1275 to 1318 of SEQ ID NO: 1 (Table 8) (antisense ACGGCATTGGTGCACAGTTT; MOE gapmer, wing and gap sizes not given here)",ALT,[2],13 IU/L
same,AST,[2],4 IU/L
same,Albumin,[2],2
same,Bilirubin,[2],4 mg/dL
same,"Organ weights, Kidney",[3],13 g
same,"Organ weights, Liver",[3],60 g
same,"Organ weights, Spleen",[3],12 g
same,Spleen weight,"[3]; cynomolgus monkeys, compared to the PBS control",shows increase in spleen weight
same,body weights,"[3]; day 1, escalating dose regimen",2912 g
same,body weights,"[3]; day 8, escalating dose regimen",2740 g
same,body weights,[3]; [8],2760 g
same,body weights,[3]; [9],2800 g
same,body weights,[3]; [10],2763 g
same,body weights,[3]; [11],2584 g
same,body weights,[3]; [12],2607 g
same,body weights,[3]; [13],2646 g
same,body weights,[3]; [14],2617 g
same,body weights,[3]; [15],2618 g
same,body weights,[3]; [16],2865 g
same,body weights,[3]; [17],2713 g
same,ALT,[4]; 2 weeks,190 IU/L
same,AST,[4]; 2 weeks,236 IU/L
same,Albumin,[4]; 2 weeks,3.4
same,Bilirubin,[4]; 2 weeks,0.57 mg/dL
same,ALT,[4]; 4 weeks,57 IU/L
same,AST,[4]; 4 weeks,108 IU/L
same,Albumin,[4]; 4 weeks,3.5
same,Bilirubin,[4]; 4 weeks,0.24 mg/dL
same,ALT,[4]; 6 weeks,216 IU/L
same,AST,[4]; 6 weeks,178 IU/L
same,Albumin,[4]; 6 weeks,2.8
same,Bilirubin,[4]; 6 weeks,0.16 mg/dL
same,BUN,[5]; 2 weeks,21 mg/dL
same,Creatinine,[5]; 2 weeks,0.13 mg/dL
same,BUN,[5]; 4 weeks,29 mg/dL
same,Creatinine,[5]; 4 weeks,0.23 mg/dL
same,BUN,[5]; 6 weeks,19 mg/dL
same,Creatinine,[5]; 6 weeks,0.10 mg/dL
"ISIS 416864: MOE gapmer, nucleobases 1275 to 1318 of SEQ ID NO: 1 (Table 8) (antisense GGCAGCGGACGGCATTGGTG; MOE gapmer, wing and gap sizes not given here)",ALT,[2],471 IU/L
same,AST,[2],68 IU/L
same,Albumin,[2],4
same,Bilirubin,[2],3 mg/dL
same,"Organ weights, Kidney",[3],14 g
same,"Organ weights, Liver",[3],53 g
same,"Organ weights, Spleen",[3],5 g
same,body weights,"[3]; day 1, escalating dose regimen",2890 g
same,body weights,"[3]; day 8, escalating dose regimen",2784 g
same,body weights,[3]; [8],2817 g
same,body weights,[3]; [9],2857 g
same,body weights,[3]; [10],2863 g
same,body weights,[3]; [11],3327 g
same,body weights,[3]; [12],3355 g
same,body weights,[3]; [13],3408 g
same,body weights,[3]; [14],3387 g
same,body weights,[3]; [15],3384 g
same,body weights,[3]; [16],2942 g
same,body weights,[3]; [17],2822 g
same,ALT,[4]; 2 weeks,44 IU/L
same,AST,[4]; 2 weeks,58 IU/L
same,Albumin,[4]; 2 weeks,3.5
same,Bilirubin,[4]; 2 weeks,0.40 mg/dL
same,ALT,[4]; 4 weeks,33 IU/L
same,AST,[4]; 4 weeks,46 IU/L
same,Albumin,[4]; 4 weeks,3.6
same,Bilirubin,[4]; 4 weeks,0.26 mg/dL
same,ALT,[4]; 6 weeks,92 IU/L
same,AST,[4]; 6 weeks,101 IU/L
same,Albumin,[4]; 6 weeks,3.5
same,Bilirubin,[4]; 6 weeks,0.22 mg/dL
same,BUN,[5]; 2 weeks,22 mg/dL
same,Creatinine,[5]; 2 weeks,0.11 mg/dL
same,BUN,[5]; 4 weeks,31 mg/dL
same,Creatinine,[5]; 4 weeks,0.22 mg/dL
same,BUN,[5]; 6 weeks,28 mg/dL
same,Creatinine,[5]; 6 weeks,0.16 mg/dL
"ISIS 417002: MOE gapmer, nucleobases 1275 to 1318 of SEQ ID NO: 1 (Table 8) (antisense GGTGCACAGTTTCTGGCAGG; MOE gapmer, wing and gap sizes not given here)",ALT,[2],44 IU/L
same,AST,[2],11 IU/L
same,Albumin,[2],3
same,Bilirubin,[2],12 mg/dL
same,"Organ weights, Kidney",[3],15 g
same,"Organ weights, Liver",[3],51 g
same,"Organ weights, Spleen",[3],5 g
same,body weights,"[3]; day 1, escalating dose regimen",2640 g
same,body weights,"[3]; day 8, escalating dose regimen",2523 g
same,body weights,[3]; [8],2571 g
same,body weights,[3]; [9],2617 g
same,body weights,[3]; [10],2622 g
same,body weights,[3]; [11],2631 g
same,body weights,[3]; [12],2630 g
same,body weights,[3]; [13],2652 g
same,body weights,[3]; [14],2654 g
same,body weights,[3]; [15],2598 g
same,body weights,[3]; [16],2727 g
same,body weights,[3]; [17],2570 g
same,ALT,[4]; 2 weeks,71 IU/L
same,AST,[4]; 2 weeks,96 IU/L
same,Albumin,[4]; 2 weeks,3.2
same,Bilirubin,[4]; 2 weeks,0.50 mg/dL
same,ALT,[4]; 4 weeks,138 IU/L
same,AST,[4]; 4 weeks,87 IU/L
same,Albumin,[4]; 4 weeks,3.4
same,Bilirubin,[4]; 4 weeks,0.25 mg/dL
same,ALT,[4]; 6 weeks,2579 IU/L
same,AST,[4]; 6 weeks,1166 IU/L
same,Albumin,[4]; 6 weeks,3.4
same,Bilirubin,[4]; 6 weeks,0.29 mg/dL
same,BUN,[5]; 2 weeks,19 mg/dL
same,Creatinine,[5]; 2 weeks,0.06 mg/dL
same,BUN,[5]; 4 weeks,23 mg/dL
same,Creatinine,[5]; 4 weeks,0.16 mg/dL
same,BUN,[5]; 6 weeks,19 mg/dL
same,Creatinine,[5]; 6 weeks,0.10 mg/dL
ISIS 445522: 5-8-5 or 6-8-6 MOE microwalk gapmer (Table 44) (antisense eG*e[5mC]*eA*e[5mC]*eA*dG*dT*dT*dT*d[5mC]*dT*dG*dG*e[5mC]*eA*eG*eG*e[5mC]),ALT,[1],51 IU/L
same,AST,[1],110 IU/L
same,Albumin,[1],3.4
same,Bilirubin,[1],0.19 mg/dL
ISIS 445531: 5-8-5 or 6-8-6 MOE microwalk gapmer (Table 44) (antisense eG*eG*e[5mC]*eA*eT*dT*dG*dG*dT*dG*d[5mC]*dA*d[5mC]*eA*eG*eT*eT*eT),ALT,[1],60 IU/L
same,AST,[1],127 IU/L
same,Albumin,[1],3.2
same,Bilirubin,[1],0.16 mg/dL
"ISIS 449707: 3-8-3, 4-8-4, 2-10-2, 3-10-3 or 4-10-4 MOE microwalk gapmer (Table 46) (antisense e[5mC]*eA*e[5mC]*eA*dG*dT*dT*dT*d[5mC]*dT*dG*dG*e[5mC]*eA*eG*eG)",BUN,[6],27 mg/dL
same,Creatinine,[6],0.2 mg/dL
same,body weight,[7],42 g
"ISIS 449708: 3-8-3, 4-8-4, 2-10-2, 3-10-3 or 4-10-4 MOE microwalk gapmer (Table 46) (antisense eA*e[5mC]*eA*dG*dT*dT*dT*d[5mC]*dT*dG*dG*e[5mC]*eA*eG)",BUN,[6],28 mg/dL
same,Creatinine,[6],0.2 mg/dL
same,body weight,[7],40 g
"ISIS 449709: 3-8-3, 4-8-4, 2-10-2, 3-10-3 or 4-10-4 MOE microwalk gapmer (Table 46) (antisense eG*e[5mC]*eA*e[5mC]*dA*dG*dT*dT*dT*d[5mC]*dT*dG*dG*d[5mC]*eA*eG*eG*e[5mC])",BUN,[6],34 mg/dL
same,Creatinine,[6],0.3 mg/dL
same,body weight,[7],40 g

# Source: patent US20230263822A1, “MODULATION OF FACTOR 11 EXPRESSION” (Ionis Pharmaceuticals, Inc., priority 2008, published 2023)
